According to patent US20210380596A1, “UPADACITINIB CRYSTAL FORM AND PREPARATION METHOD THEREFOR AND USE THEREOF” (CRYSTAL PHARMACEUTICAL (SUZHOU) CO., LTD., priority 2019, published 2021):
Converted amounts (≈) assume the structure as drawn. “And” between values parts separate entries of the source, which are not always exact repeats. Identical values can stand only once. “Also recorded” adds a separate entry of the source.

Columns and labels:
[1] = Mechanical stability (tableting at 10 kN, manual grinding; XRPD); assay type: physicochemical
Description: 30 mg of Form CSII was weighed into the dies of a Φ8 mm round tooling and tableted by ENERPAC manual tablet press with 10 kN pressure. Crystalline form before and after tableting were checked by XRPD. […] 10 mg of Form CSII was weighed into a mortar and ground manually for 5 min. The crystalline form before and after grinding were checked by XRPD.

[2] = Adhesiveness (material sticking to the punch); assay type: physicochemical; conditions: 30 mg, Φ8 mm tooling, 10 kN held 30 s
Description: The amount of material sticking to the punch was weighed. The compression was repeated twice and the average amount of material sticking to the punch during the compression were recorded.

[3] = Stability of Form CSII drug substance on storage (XRPD, HPLC purity); assay type: physicochemical; conditions: for Chemical purity during storage: drug substance
Description: X-ray powder diffraction patterns in the present disclosure were acquired by a Bruker D2 PHASER or Bruker D8 Discover X-ray powder diffractometer. The parameters of the X-ray powder diffraction method of the present disclosure are as follows:
The method parameters for relative substances test in the present disclosure are as follows:
A certain amount of Form CSII sample was stored at different conditions of 4° C., 25° C./60% RH, 40° C./75% RH and 60° C./75% RH. Crystalline form was checked by XRPD before and after storage.

[4] = Stability of Form CSII in drug product (formulation process and storage); assay type: physicochemical; conditions: formulation and process of Tables 14 and 15
Description: Crystalline form before and after tableting were checked by XRPD.
The drug products of Form CSII were stored under 25° C./60% RH and 40° C./75% RH in closed dishes with 1 g of desiccant for 3 months to evaluate the stability of Form CSII in drug product.

[5] = Kinetic solubility of Form CSII (saturated solutions, HPLC); assay type: physicochemical
Description: The method parameters of kinetic solubility test in the present disclosure are as follows:
A certain amount of Form CSII was suspended into pH=7.4 PBS, pH=6.5 FaSSIF and pH=5.0 FeSSIF at 25° C. or 37° C. to obtain saturated solutions. After equilibration for 24 h, 30 h and 48 h, the suspensions were filtered to obtain saturated solutions, and concentration was determined by HPLC.

[6] = Compressibility (tablet hardness and tensile strength); assay type: physicochemical; conditions: for Diameter / Thickness: 80 mg, Φ6 mm tooling, 10 kN, after 24 h, tablets 1-3; for Average tensile strength: mean of three tablets
Description: An ENERPAC manual tablet press was used for compression. […] Until complete elastic recovery, hardness (H) was tested with an intelligent tablet hardness tester. Diameter (D) and thickness (L) were tested with a caliper. Tensile strength of the powder was calculated with the following formula: T=2H/πDL. Under a certain force, the greater the tensile strength, the better the compressibility.

[7] = Flowability (compressibility index / Carr index); assay type: physicochemical; conditions: for Bulk density (ρ0): 5-mL measuring cylinder, 500 mg; for Flowability: criteria of ICH Q4B Annex 13; for Tapped density (ρf): tapping times: 1250
Description: Compressibility index or Carr index is usually utilized to evaluate the flowability of powder and granules during the drug product process. Compressibility index test method is as follows: a certain amount of powder was added into a measuring cylinder and bulk volume was recorded. Then the powder was tapped to make it in the tightest state and the tapped volume was recorded. The bulk density ρ0 and tapped density pf were calculated. The compressibility index was calculated according to c=(ρf−ρ0)/ρf.
Equipment: ZS-2E tap density tester.
Parameter: 5-mL measuring cylinder, 500 mg, tapping times: 1250.

[8] = Particle size distribution (Mastersizer 3000, wet mode); assay type: physicochemical; conditions: Isopar G containing 0.2% lecithin
Description: Proton nuclear magnetic resonance (H NMR) spectrum data were collected from a Bruker Avance II DMX 400M HZ NMR spectrometer. 1-5 mg of sample was weighed and dissolved in 0.5 mL of deuterated dimethyl sulfoxide to obtain a solution with a concentration of 2-10 mg/mL. The particle size distribution data in the present disclosure were acquired by a Mastersizer 3000 laser particle size analyzer of Malvern. The test is carried out in wet mode with a Hydro MV dispersing device, and the dispersion medium is Isopar G. The method parameters of the laser particle size analyzer are as follows:
The mixtures were mixed thoroughly and transferred into the Hydro MV. The measurement was started when the shading rate is in an appropriate position.

[9] = FaSSIF, 37° C.; disclosed in WO2017066775A1; cited from earlier work
[10] = 25° C./60% RH, closed, 3 months
[11] = 40° C./75% RH, closed, 3 months
[12] = FaSSIF pH 6.5, thermodynamic from solid, pH=6.5 FaSSIF, 37° C.
[13] = FeSSIF pH 5.0, thermodynamic from solid, pH=5.0 FeSSIF, 37° C.
[14] = PBS pH 7.4, aqueous buffer, thermodynamic from solid, pH=7.4 PBS, 25° C.
[15] = listed as Form C in WO2017066775A1

**Q.** What does the source list for CC[C@@H]1CN(C(=O)NCC(F)(F)F)C[C@@H]1c1cnc2cnc3[nH]ccc3n12 [Form CSII, (3S,4R)-3-ethyl-4-(3H-imidazo[1,2-a]pyrrolo [2,3-e]pyrazin-8-yl)-N-(2,2,2-trifluoroethyl) pyrrolidine-1-carboxamide]?
**A.** Crystallinity after tableting ([1]; 10 kN pressure): remained basically unchanged; Crystalline state after tableting ([1]; 10 kN pressure, Φ8 mm round tooling): does not change; Crystalline state after grinding ([1]; ground manually for 5 min): does not change; also recorded: doesn't change; Crystallinity after grinding ([1]; ground manually for 5 min): remained basically unchanged; Average amount of material sticking to the punch [2]: 0.16 mg; Time kept stable (crystalline state unchanged) ([3]; 4° C.): at least 3 months; Purity ([3]; 4° C., closed, 3 months): 99.41%; Solid form ([3]; 4° C., closed, 3 months): Form CSII; Purity [3, 10]: 99.42%; Solid form [3, 10]: Form CSII; Purity ([3]; 25° C./60% RH, open, 3 months): 99.43%; Solid form ([3]; 25° C./60% RH, open, 3 months): Form CSII; Purity [3, 11]: 99.42%; Solid form [3, 11]: Form CSII; Purity ([3]; 40° C./75% RH, open, 3 months): 99.44%; Solid form ([3]; 40° C./75% RH, open, 3 months): Form CSII; Purity ([3]; 60° C./75% RH, closed, 1 month): 99.43%; Solid form ([3]; 60° C./75% RH, closed, 1 month): Form CSII; Purity ([3]; 60° C./75% RH, open, 1 month): 99.48%; Solid form ([3]; 60° C./75% RH, open, 1 month): Form CSII; Purity ([3]; Initial): 99.35%; Solid form ([3]; Initial): Form CSII; Chemical purity during storage ([3]; 25° C./60% RH): above 99%; Chemical purity during storage ([3]; 40° C./75% RH and 60° C./75% RH): above 99%; Crystalline form in the formulation process (before and after tableting, XRPD) [4]: stable; solubility at 24 h [5, 12]: 740 µg/mL (≈ 1950 µM); solubility at 30 h [5, 12]: 760 µg/mL (≈ 2000 µM); solubility at 48 h [5, 12]: 830 µg/mL (≈ 2180 µM); solubility at 24 h [5, 13]: 1400 µg/mL (≈ 3680 µM); solubility at 30 h [5, 13]: 1400 µg/mL (≈ 3680 µM); solubility at 48 h [5, 13]: 1500 µg/mL (≈ 3940 µM); solubility at 24 h [5, 14]: 730 µg/mL (≈ 1920 µM); solubility at 30 h [5, 14]: 740 µg/mL (≈ 1950 µM); solubility at 48 h [5, 14]: 720 µg/mL (≈ 1890 µM); Solubility compared with Form C ([5]; pH=7.4 PBS, FaSSIF and FeSSIF): higher; Diameter [6]: 6.05 mm and 6.04 mm and 6.03 mm; Thickness [6]: 2.35 mm and 2.16 mm and 2.12 mm; Average tensile strength [6]: 0.88 MPa; Bulk density (ρ0) [7]: 0.3295 g/mL; Flowability [7]: Excellent (≤10); Tapped density (ρf) [7]: 0.3548 g/mL; Particle size distribution [8]: uniform

**Q.** Which results are given for CC[C@@H]1CN(C(=O)NCC(F)(F)F)C[C@@H]1c1cnc2cnc3[nH]ccc3n12 [Form C, (3S,4R)-3-ethyl-4-(3H-imidazo[1,2-a]pyrrolo [2,3-e]pyrazin-8-yl)-N-(2,2,2-trifluoroethyl) pyrrolidine-1-carboxamide, reference compound]?
**A.** Average amount of material sticking to the punch [2, 15]: 0.21 mg; Solubility [9]: 220 µg/mL (≈ 578 µM); Diameter [6, 15]: 6.00 mm and 6.01 mm; Thickness [6, 15]: 2.14 mm and 2.18 mm and 2.07 mm; Average tensile strength [6, 15]: 0.69 MPa; Bulk density (ρ0) [7, 15]: 0.3611 g/mL; Flowability [7, 15]: Very poor (32-37); Tapped density (ρf) [7, 15]: 0.5618 g/mL
